Experimental data published in patent publication US4966962A, “Reverse analogue of actinomycin D” (Trustees of Boston University, priority 1988, dated 1990).
Values after ≈ are worked out from the molar mass of the structure shown. Read-outs that look alike come from different tables or passages of the source. *1 amine or outer side, *2 acyl side, *3 side chain or, on linkers, in order; H or OH if unused. Where a SMILES comes first, the peptide text is derived from it. Bridges are numbered along the chain shown (N, C = ends). Roman numbers before positions name the chains, in order. [ ]: non-standard residue; d: D form. Actinocin(9to1) = Cc1c2oc3c(C)ccc(C(=O)[*:1])c3nc-2c(C(=O)[*:2])c(N)c1=O; NMeV = CN[C@H](C(=O)O)C(C)C; Sar = CNCC(=O)O

How the values were obtained:
colon tumor 26 = test: In vivo activity against colon tumor 26; parameters: species or system CDF1 mice; conditions: three doses over 9-day period
colon 38 adenocarcinoma = test: Activity against advanced colon carcinoma C38 tumor; assay type: in vivo, CDF1 mice; conditions: for % inhibn of tumor: tumors measured day 21; for activity relative to AMD at equivalent doses: every 4 days, three times, from day 1 after implant
Protocol: In view of favorable activity agianst colon 26 carcinoma, further experiments using the active analogues were carried out on the advanced colon adenocarcinomas of mouse colon 38. […] The superiority of RAD III and SAD over AMD in inhibiting colon 38 carcinoma is evident from the data of both tumor weight inhibition and increases in survival time of the treated over nontreated mice and the larger number of long-term survivors produced by these analogues.
^a CDF1 mice were injected sc with colon 38 adenocarcinoma
fragments (70 mg) and treated with drugs with iv injections on day 1, 5,
and 9 following tumor imoplantation on day 0. ^b [100 (tumor weight o
treated mice/tumor weight of untreated mice)] × 100; data pooled
from two experiments, tumors measured on day 21 after implantation ^c
(Median survival time of treated mice/median survival of untreated mice)
× 100; in parenthesis, number of over 100 day survivors/number of […]

B16 melanoma = test: In vivo antitumor activity against B16 melanoma; parameters: species or system BDF1 mice; conditions: for % ILS / survivors on day 65/total injected / MST (range), median survival time: at optimal dose, ip days 1, 5, 9; for MST (range), median survival time: range of days of death; for optimal dose: ip, days 1, 5, 9
Protocol: ^a 0.2 mL of 1:5 (weight/volume) brei of B16 melanoma implanted
ip on day 0 in groups of nine BDF1 mice. Drugs administered ip^b
MST (range), median survival time in days (range of days for death of
individual animal). ^c % ILS (surv), percent increase in life span
(survivors on day 65/total injected).

mouse melanoma (B16) = test: In vitro inhibition of tumor cell growth; assay type: cell-based; conditions: B16 cell line
Description: The comparative cell growth inhibitory activity of RAD's and SAD are reported (data in Table IV, supplementary material). The cell lines used are human lymphoblastic leukemia (CCRF-CEM), murine lymphocytic leukemia (P388) and lymphoid leukemia (L1210), and mouse melanoma (B16). […] In general, the cytotoxic potencies of the analogues are in the order: […]

[1] = tested on: CX-1 human colon adenocarcinoma; test: Chemotherapy of human colon CX-1 tumor heterotransplanted in nude mice; assay type: in vivo, human tumor in athymic mice
[2] = Maximum tolerated dose (LD10) in tumor-free male mice; conditions: ip days 1, 5, 9; deaths observed during 21 days; from plot of log dose vs percent mortality
Protocol: The analogues were also tested in tumor-free male mice for their LD10 values (Table XIV). The animals were given a broad range of doses (ip) on days 1, 5, and 9. The maximum tolerated doses of AMD and the analogues that caused death in only 10% of the tested animals in 21 days (i.e., LD10) were recorded as MTD. […] On the basis of these values, the calculated therapeutic index values of SAD is 96, and those of RAD I, II, and III are 60, 67, and 70, respectively.
control in P388 tumor bearing mice. ^c MTD (maximum tolerated dose) i
the lethal dose (milligram/kilogram) for 10% normal BDF1 male mice
days). Values were calculated from a plot of log dose vs percent

calf thymus DNA [3] = conditions: value given with references 2,7; cited from earlier work
Solubility in water = assay type: physicochemical; conditions: for solubility in water: at 20° C.
Protocol: Synthesis of "Reverse" III AMD Analogue (RAD III, 3c). The synthesis of RAD III (3c) is shown schematically in Scheme I. Compound 4 was reacted with the benzyl ester of oxalacetic acid at 80° C. according to the procedure reported. The resulting product 5 with the CH2 COOCH2 C6 H5 substituent at the C-2 of the oxazole ring was debenzylated to 6, and compound 6 was coupled with excess 1,4-diaminobutane by DCC in pyridine. […] Like AMD and its other "reverse" analogues, RAD III (3c) is 16-fold more soluble in water at 4° C. than at 20° C.

low molecular weight DNA = test: Viscometry experiment (intercalation into DNA); assay type: binding; conditions: DNA 0.5×10^5 to 1.0×10^5 daltons
calf thymus DNA [4] = test: Equilibrium binding constants from Scatchard plots of binding isotherms; conditions: 0.01M phosphate buffer, pH 7.0 at 20° C.
Protocol: The equilibrium binding constants of RAD III (3c), determined from the Scatchard plots of binding isotherms with use of calf thymus DNA, are Kapp, 2.9×10^6 M^-1, and Bapp, 0.040 in 0.01M phosphate buffer, pH 7.0 at 20° C.

[5] = dose 0.30 mg/kg iv days 1, 5, 9
[6] = dose 0.60 mg/kg iv days 1, 5, 9
[7] = dose 1.20 mg/kg iv days 1, 5, 9
[8] = dose 0.075 mg/kg iv days 1, 5, 9
[9] = dose 0.15 mg/kg iv days 1, 5, 9
[10] = dose 0.45 mg/kg iv days 1, 5, 9

Row | Structure (SMILES) | activity against colon tumor 26 (colon tumor 26) | % T/C (median survival time) (colon 38 adenocarcinoma; [5]) [%] | over 100 day survivors/number of mice (colon 38 adenocarcinoma; [5]) | % inhibn of tumor (colon 38 adenocarcinoma; [5]) [%] | % T/C (median survival time) (colon 38 adenocarcinoma; [6]) [%] | over 100 day survivors/number of mice (colon 38 adenocarcinoma; [6]) | % inhibn of tumor (colon 38 adenocarcinoma; [6]) [%] | % T/C (median survival time) (colon 38 adenocarcinoma; [7]) [%] | over 100 day survivors/number of mice (colon 38 adenocarcinoma; [7]) | % inhibn of tumor (colon 38 adenocarcinoma; [7]) [%] | activity relative to AMD at equivalent doses (colon 38 adenocarcinoma) | % ILS (B16 melanoma) [%] | survivors on day 65/total injected (B16 melanoma) | MST (range), median survival time (B16 melanoma) | optimal dose (B16 melanoma) [μg/kg per inj] | cell growth inhibitory potency relative to AMD (mouse melanoma (B16)) | MTD (maximum tolerated dose), lethal dose for 10% of normal mice (LD10) [2] [milligram/kilogram] | % T/C (median survival time) (colon 38 adenocarcinoma; [9]) [%] | % inhibn of tumor (colon 38 adenocarcinoma; [9]) [%] | solubility in water (Solubility in water) [mg/mL] | other results
1 | Cc1c2oc3c(C)c(O)c(N)c(C(=O)N[C@@H]4C(=O)N[C@H](C(C)C)C(=O)N5CCC[C@H]5C(=O)N(C)CC(=O)N(C)[C@@H](C(C)C)C(=O)O[C@@H]4C)c3nc-2c(C(=O)N[C@@H]2C(=O)N[C@H](C(C)C)C(=O)N3CCC[C@H]3C(=O)N(C)CC(=O)N(C)[C@@H](C(C)C)C(=O)O[C@@H]2C)c(N)c1=O [SAD (2)] | significant activity | 278 | 5/9 | 95 | 278 | 6/9 | 97 | 211 | 2/9 | 99 | about 150% | 96 | 4/9 | 57(33-61) days | 300 | two to fourfold | 2.40 | – | – | – | increase in %ILS over controls (colon tumor 26): 50-150%; increase of survival rate at 60 days (colon tumor 26): 10-40%; % T/C, optimal ([1]; dose 40 μg/kg iv once a week for three weeks, TST 15, observed day 22): 18%; % T/C, optimal ([1]; dose 55 μg/kg iv once a week for three weeks, TST 15, observed day 22): 19%; % T/C, optimal ([1]; dose 70 μg/kg iv once a week for three weeks, TST 15, observed day 32): 5%
2 | Cc1c2oc3c(C)ccc(C(=O)N[C@@H]4C(=O)N[C@H](C(C)C)C(=O)N5CCC[C@H]5C(=O)N(C)CC(=O)N(C)[C@@H](C(C)C)C(=O)O[C@@H]4C)c3nc-2c(C(=O)N[C@@H]2C(=O)N[C@H](C(C)C)C(=O)N3CCC[C@H]3C(=O)N(C)CC(=O)N(C)[C@@H](C(C)C)C(=O)O[C@@H]2C)c(N)c1=O [AMD (1), Actinomycin D] (I: T[dV]P[Sar][NMeV] / II: T[dV]P[Sar][NMeV]; ester I:1-I:C, II:1-II:C; linker I:N-II:N via Actinocin(9to1)) | – | 134 | – | 67 | 103 | – | 89 | – | – | – | – | 48 | 2/9 | 43(36-54) days | 250 | – | 0.25 | 107 | 30 | 1.0 (≈ 797 µM) | % T/C (median survival time) (colon 38 adenocarcinoma; [8]): 100%; % inhibn of tumor (colon 38 adenocarcinoma; [8]): 30%; % T/C (median survival time) (colon 38 adenocarcinoma; [10]): 170%; % inhibn of tumor (colon 38 adenocarcinoma; [10]): 83%; Bapp (calf thymus DNA [3]): 0.108; Kapp (equilibrium binding constant) (calf thymus DNA [3]): 2.3e+07 M⁻¹
3 | Cc1c2oc3c(C)c4oc(CC(=O)NCCCCN)nc4c(C(=O)N[C@@H]4C(=O)N[C@H](C(C)C)C(=O)N5CCC[C@H]5C(=O)N(C)CC(=O)N(C)[C@@H](C(C)C)C(=O)O[C@@H]4C)c3nc-2c(C(=O)N[C@@H]2C(=O)N[C@H](C(C)C)C(=O)N3CCC[C@H]3C(=O)N(C)CC(=O)N(C)[C@@H](C(C)C)C(=O)O[C@@H]2C)c(N)c1=O [RAD III (3c)] | significant activity | 170 | 1/9 | 80 | 250 | 6/9 | 93 | 231 | 3/9 | 94 | about 150% | 114 | 6/9 | 62(53-61) days | 300 | two to fourfold | 3.50 | – | – | 2.1 (≈ 1470 µM) | fold more soluble in water at 4° C. than at 20° C. (Solubility in water; 4° C. vs 20° C.): 16 fold; change in the intrinsic viscosity with increasing [ligand]/[DNA base pair] (low molecular weight DNA): failed to demonstrate any measurable change in the intrinsic viscosity; % T/C, optimal ([1]; dose 75 μg/kg iv once a week for three weeks, TST 18, observed day 27): 13%; Bapp (calf thymus DNA [4]): 0.040; Kapp (equilibrium binding constant) (calf thymus DNA [4]): 2.9e+06 M⁻¹
4 | Cc1c2oc3c(C)c4oc(-c5ccccc5)nc4c(C(=O)N[C@@H]4C(=O)N[C@H](C(C)C)C(=O)N5CCC[C@H]5C(=O)N(C)CC(=O)N(C)[C@@H](C(C)C)C(=O)O[C@@H]4C)c3nc-2c(C(=O)N[C@@H]2C(=O)N[C@H](C(C)C)C(=O)N3CCC[C@H]3C(=O)N(C)CC(=O)N(C)[C@@H](C(C)C)C(=O)O[C@@H]2C)c(N)c1=O [RAD II (3b)] | – | 137 | – | 70 | 170 | 3/9 | 83 | 103 | 2/9 | 88 | – | 103 | 5/9 | 59(53-59) days | 300 | – | 2.00 | 103 | 29 | – | over 100 day survivors/number of mice (colon 38 adenocarcinoma; [9]): 1/9
